{"source": "patent US11369111B2", "about": "“Synergistic composition of nematicide comprising of chalcones” (priority 2017, dated 2022)", "key": {"[1]": {"system": "P. aeruginosa (Gram negative)", "assay": "Effect of chalcones on common microorganisms (CFU on nutrient agar plates)", "assay_type": "cell-based, Pseudomonas aeruginosa", "details": "for Effect on microorganism (Colony Forming Units): 24-48 hours", "method": "(§1) Two common soil microorganisms (Pseudomonas aeruginosa and Bacillus subtilis) and two common laboratory microorganisms (Escherichia coli, and Saccharomyces cerevisiae) were tested for the effects of individual chalcones. Microorganisms were grown on nutrient agar plates containing 10^−4, 10^−5, or 10^−6 M concentrations of chalcones and Colony Forming Units (CFU) were counted after 24-48 hours of growth in nutrient agar plates."}, "[2]": {"system": "B. subtilis (Gram positive)", "assay": "Effect of chalcones on common microorganisms (CFU on nutrient agar plates)", "assay_type": "cell-based, Bacillus subtilis", "details": "for Effect on microorganism (Colony Forming Units): 24-48 hours", "method": "as §1"}, "E. coli (Gram negative)": {"system": "E. coli (Gram negative)", "assay": "Effect of chalcones on common microorganisms (CFU on nutrient agar plates)", "assay_type": "cell-based, Escherichia coli", "details": "for Effect on microorganism (Colony Forming Units): 24-48 hours", "method": "as §1"}, "S. cerevisiae": {"system": "S. cerevisiae", "assay": "Effect of chalcones on common microorganisms (CFU on nutrient agar plates)", "assay_type": "cell-based, Saccharomyces cerevisiae", "details": "for Effect on microorganism (Colony Forming Units): 24-48 hours", "method": "as §1"}, "Caenorhabditis elegans": {"system": "Caenorhabditis elegans", "details": "10^−4 M, laboratory conditions, individually; cited from earlier work"}, "cucumber crop": {"system": "cucumber crop", "assay": "Effect on growth of cucumber plants in a poly house", "assay_type": "in vivo"}, "[3]": {"system": "root knot nematodes in soil", "assay": "Effect on root knot nematodes in soil", "assay_type": "in vivo, Meloidogyne"}, "root-knot nematodes": {"system": "root-knot nematodes", "assay": "Gall formation in roots of infected cucumber plants (root gall index)", "assay_type": "in vivo"}}}
{"smiles": "CCOc1ccc(C(=O)/C=C/c2ccccc2)cc1", "note": "[Chalcone 25, (2E)-1-(4-Ethoxyphenyl)-3-phenyl-2-propen-1-one]", "values": [{"measurement": "effect on growth of microorganism", "setting": "[1]", "result": "promote the growth"}, {"measurement": "Effect on microorganism (Colony Forming Units)", "setting": "[1]; 10^−4 M", "result": 148.8}, {"measurement": "Effect on microorganism (Colony Forming Units)", "setting": "[1]; 10^−5 M", "result": 148.1}, {"measurement": "Effect on microorganism (Colony Forming Units)", "setting": "[1]; 10^−6 M", "result": 141.2}, {"measurement": "effect on growth of microorganism", "setting": "[2]", "result": "limit the growth"}, {"measurement": "Effect on microorganism (Colony Forming Units)", "setting": "[2]; 10^−4 M", "result": 55.1}, {"measurement": "Effect on microorganism (Colony Forming Units)", "setting": "[2]; 10^−5 M", "result": 55.9}, {"measurement": "Effect on microorganism (Colony Forming Units)", "setting": "[2]; 10^−6 M", "result": 83.6}, {"measurement": "effect on growth of microorganism", "setting": "E. coli (Gram negative)", "result": "does not affect the growth"}, {"measurement": "Effect on microorganism (Colony Forming Units)", "setting": "E. coli (Gram negative); 10^−4 M", "result": 52.3}, {"measurement": "Effect on microorganism (Colony Forming Units)", "setting": "E. coli (Gram negative); 10^−5 M", "result": 69.6}, {"measurement": "Effect on microorganism (Colony Forming Units)", "setting": "E. coli (Gram negative); 10^−6 M", "result": 103.3}, {"measurement": "effect on growth of microorganism", "setting": "S. cerevisiae", "result": "does not affect the growth"}, {"measurement": "Effect on microorganism (Colony Forming Units)", "setting": "S. cerevisiae; 10^−4 M", "result": 97.8}, {"measurement": "Effect on microorganism (Colony Forming Units)", "setting": "S. cerevisiae; 10^−5 M", "result": 125.4}, {"measurement": "Effect on microorganism (Colony Forming Units)", "setting": "S. cerevisiae; 10^−6 M", "result": 90.3}, {"measurement": "nematicidal activity", "setting": "Caenorhabditis elegans", "result": "shown nematicidal activity"}]}
{"smiles": "O=C(/C=C/c1ccccc1)c1ccc(Cl)cc1Cl", "note": "[Chalcone 17, (2E)-1-(2,4-Dichlorophenyl)-3-phenyl-2-propen-1-one]", "values": [{"measurement": "effect on growth of microorganism", "setting": "[1]", "result": "limit the growth"}, {"measurement": "Effect on microorganism (Colony Forming Units)", "setting": "[1]; 10^−4 M", "result": 55.8}, {"measurement": "Effect on microorganism (Colony Forming Units)", "setting": "[1]; 10^−5 M", "result": 53.9}, {"measurement": "Effect on microorganism (Colony Forming Units)", "setting": "[1]; 10^−6 M", "result": 56.0}, {"measurement": "effect on growth of microorganism", "setting": "[2]", "result": "limit the growth"}, {"measurement": "Effect on microorganism (Colony Forming Units)", "setting": "[2]; 10^−4 M", "result": 69.0}, {"measurement": "Effect on microorganism (Colony Forming Units)", "setting": "[2]; 10^−5 M", "result": 51.4}, {"measurement": "Effect on microorganism (Colony Forming Units)", "setting": "[2]; 10^−6 M", "result": 50.8}, {"measurement": "Effect on microorganism (Colony Forming Units)", "setting": "E. coli (Gram negative); 10^−4 M", "result": 115.4}, {"measurement": "Effect on microorganism (Colony Forming Units)", "setting": "E. coli (Gram negative); 10^−5 M", "result": 131.3}, {"measurement": "Effect on microorganism (Colony Forming Units)", "setting": "E. coli (Gram negative); 10^−6 M", "result": 97.3}, {"measurement": "Effect on microorganism (Colony Forming Units)", "setting": "S. cerevisiae; 10^−4 M", "result": 97.0}, {"measurement": "Effect on microorganism (Colony Forming Units)", "setting": "S. cerevisiae; 10^−5 M", "result": 82.8}, {"measurement": "Effect on microorganism (Colony Forming Units)", "setting": "S. cerevisiae; 10^−6 M", "result": 106.7}, {"measurement": "nematicidal activity", "setting": "Caenorhabditis elegans", "result": "shown nematicidal activity"}]}
{"smiles": "O=C(/C=C/c1ccccc1)c1cccs1", "note": "[Chalcone 30, (2E)-3-Phenyl-1-(2-thienyl)-2-propen-1-one]", "values": [{"measurement": "nematicidal activity", "setting": "Caenorhabditis elegans", "result": "shown nematicidal activity"}]}
{"smiles": "CNC(=O)Oc1cccc2c1OC(C)(C)C2", "note": "[Carbofuran]", "values": [{"measurement": "increase in shoot length compared to untreated plants", "setting": "cucumber crop; Day 10 (FIG. 3)", "result": "did not show similar positive effect"}, {"measurement": "increase in leaf length compared to untreated plants", "setting": "cucumber crop; Day 10 (FIG. 6)", "result": "did not show similar positive effect"}, {"measurement": "increase in number of flowers compared to untreated plants", "setting": "cucumber crop; Day 10 (FIG. 9)", "result": "did not show similar positive effect"}, {"measurement": "increase in shoot length compared to untreated plants", "setting": "cucumber crop; Day 21 (FIG. 4)", "result": "did not have similar positive effect"}, {"measurement": "increase in leaf length compared to untreated plants", "setting": "cucumber crop; Day 21 (FIG. 7)", "result": "did not show similar positive effect"}, {"measurement": "increase in number of flowers compared to untreated plants", "setting": "cucumber crop; Day 21 (FIG. 10)", "result": "did not show similar positive effect"}, {"measurement": "increase in number of fruits compared to untreated plants", "setting": "cucumber crop; Day 21 (FIG. 12)", "result": "did not show similar positive effect"}, {"measurement": "increase in number of fruits compared to untreated plants", "setting": "cucumber crop; Day 21 (FIG. 13)", "result": "did not show similar positive effect"}, {"measurement": "increase in number of fruits compared to untreated plants", "setting": "cucumber crop; Day 21 (FIG. 14)", "result": "did not show similar positive effect"}, {"measurement": "increase in shoot length compared to untreated plants", "setting": "cucumber crop; Day 35 (FIG. 5)", "result": "did not show similar positive effect"}, {"measurement": "increase in leaf length compared to untreated plants", "setting": "cucumber crop; Day 35 (FIG. 8)", "result": "did not show similar positive effect"}, {"measurement": "increase in number of flowers compared to untreated plants", "setting": "cucumber crop; Day 35 (FIG. 11)", "result": "did not show similar positive effect"}, {"measurement": "Percentage Change compared to untreated, Average Leaf length", "setting": "cucumber crop; after 28 days of treatment", "result": 6, "unit": "%"}, {"measurement": "Percentage Change compared to untreated, Average Shoot length", "setting": "cucumber crop; after 28 days of treatment", "result": 3, "unit": "%"}, {"measurement": "Percentage Change compared to untreated, Average number of flowers", "setting": "cucumber crop; after 28 days of treatment", "result": "−9", "unit": "%"}, {"measurement": "Percentage Change compared to untreated, Average number of fruits", "setting": "cucumber crop; after 28 days of treatment", "result": 50, "unit": "%"}, {"measurement": "effect on nematodes in the soil", "setting": "[3]; after 14 days, even at higher dosages", "result": "did not show any significant effect"}, {"measurement": "efficacy in killing and maintaining a small number of nematodes in soil", "setting": "[3]; after 19 days of treatment (FIG. 17-19)", "result": "do not have the same positive effect"}, {"measurement": "Root gall index (Day 1)", "setting": "root-knot nematodes; Day 1", "result": 1}, {"measurement": "Root gall index (Day 25 of treatment)", "setting": "root-knot nematodes; Day 25 of treatment", "result": "2 (2=1-25%)"}, {"measurement": "Root gall index (Day 45-20 days after second treatment)", "setting": "root-knot nematodes; Day 45, 20 days after second treatment", "result": "4 (4=51-75%)"}]}
